The results in this text go back to US6808904B2, “Herbicide-tolerant protox genes produced by DNA shuffling” (priority 1994, dated 2004).

In assay [1] the target is T1, plant protox mutants (Arabidopsis protox-1) in SASX38 (Arabidopsis thaliana, UniProt P55826, A220L/T56K/Y426L).
T1 construct: contains only 17 amino acids of the putative chloroplast transit peptide; expressed in transfected cells; host or cells: E. coli SASX38 (hemG mutant)
Description: Bacterial cross-tolerance testing of resistant mutant plasmids in SASX38, Arabidopsis protox-1 mutants. Type of assay: cell-based. Conditions: mutant AraC-1Leu + AraC-2Leu. More on the design: key to Cross tolerance, AraC-1Val / Cross tolerance, AraC-2Cys / Cross tolerance, AraC-1Thr / Cross tolerance, AraC-3Thr / Cross tolerance, AraC-2Ile / Cross tolerance, AraC-2Cys + AraC425Ser: + = 10× or more tolerant than WT; ++ = 100× or more tolerant than WT; − = no cross tolerance. As to the method: (§1) Resistant mutant plasmids, originally identified based on resistance against a single protox inhibitory herbicide, were tested against a spectrum of other protox inhibiting compounds. For this test, the SASX38 strain containing the wild-type plasmid is plated on a range of concentrations of each compound to determine the lethal concentration for each one. Resistant mutant plasmids in SASX38 are plated and scored for the ability to survive on a concentration of each compound at least 10 fold higher than the concentration that is lethal to the SASX38 strain containing the wild-type plasmid.

In assay [2] the target is T2, plant protox mutants (Arabidopsis protox-1) in SASX38 (Arabidopsis thaliana, UniProt P55826, A220L/T56K/Y426M).
T2 construct: contains only 17 amino acids of the putative chloroplast transit peptide; expressed in transfected cells; host or cells: E. coli SASX38 (hemG mutant)
T2 sequence (P55826 41-537 T56K/A220L/Y426M): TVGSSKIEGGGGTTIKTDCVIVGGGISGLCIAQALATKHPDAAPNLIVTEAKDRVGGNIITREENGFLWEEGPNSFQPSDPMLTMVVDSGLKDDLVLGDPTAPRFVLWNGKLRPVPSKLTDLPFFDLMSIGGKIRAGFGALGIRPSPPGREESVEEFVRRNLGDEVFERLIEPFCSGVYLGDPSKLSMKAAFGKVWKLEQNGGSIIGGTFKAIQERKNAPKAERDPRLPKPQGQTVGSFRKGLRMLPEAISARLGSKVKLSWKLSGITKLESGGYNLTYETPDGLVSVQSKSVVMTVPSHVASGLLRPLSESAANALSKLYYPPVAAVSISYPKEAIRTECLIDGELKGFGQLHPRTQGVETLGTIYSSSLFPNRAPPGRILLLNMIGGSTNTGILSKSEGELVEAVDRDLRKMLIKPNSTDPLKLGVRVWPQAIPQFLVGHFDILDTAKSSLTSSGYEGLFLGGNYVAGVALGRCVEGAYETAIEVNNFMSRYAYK
The assay is described as above. More on the design: key to Cross tolerance, AraC-1Val / Cross tolerance, AraC-2Cys / Cross tolerance, AraC-1Thr / Cross tolerance, AraC-3Thr / Cross tolerance, AraC-2Ile / Cross tolerance, AraC-2Cys + AraC425Ser: + = 10× or more tolerant than WT; ++ = 100× or more tolerant than WT; − = no cross tolerance. Conditions: mutant AraC-1Leu + AraC-2Met. The class given is cell-based. As to the method: as §1

Assay [3] deals with T3, plant protox mutants (Arabidopsis protox-1) in SASX38 (Arabidopsis thaliana, UniProt P55826, A220V/T56K).
T3 construct: contains only 17 amino acids of the putative chloroplast transit peptide; expressed in transfected cells; host or cells: E. coli SASX38 (hemG mutant)
T3 sequence (P55826 41-537 T56K/A220V): as the sequence (P55826 41-537 T56K/A220L/Y426M) above, with L180V, M386Y counted along it
The assay is described as above. Type of assay: cell-based. More on the design: key to Cross tolerance, AraC-1Val / Cross tolerance, AraC-2Cys / Cross tolerance, AraC-1Thr / Cross tolerance, AraC-3Thr / Cross tolerance, AraC-2Ile / Cross tolerance, AraC-2Cys + AraC425Ser: + = 10× or more tolerant than WT; ++ = 100× or more tolerant than WT; − = no cross tolerance. The conditions noted are these: mutant AraC-1Val vs WT plasmid in SASX38. As to the method: as §1

Assay [4] addresses T4, plant protox mutants (Arabidopsis protox-1) in SASX38 (Arabidopsis thaliana, UniProt P55826, N425S/T56K/Y426M).
T4 construct: contains only 17 amino acids of the putative chloroplast transit peptide; expressed in transfected cells; host or cells: E. coli SASX38 (hemG mutant)
Described as above. The class given is cell-based. More on the design: key to Cross tolerance, AraC-1Val / Cross tolerance, AraC-2Cys / Cross tolerance, AraC-1Thr / Cross tolerance, AraC-3Thr / Cross tolerance, AraC-2Ile / Cross tolerance, AraC-2Cys + AraC425Ser: + = 10× or more tolerant than WT; ++ = 100× or more tolerant than WT; − = no cross tolerance. Conditions: mutant AraC-2Met + AraC425Ser. As to the method: as §1

In assay [5] the target is T5, plant protox mutants (MzC-1Val, maize protox-1) in SASX38 (Arabidopsis thaliana, UniProt P55826, A220V/A252T/A259N/A262P/A292S/A82G/A83V/D204A/D323E/D487E/D93A/DEL80-81/E103P/E263P/E288N/E311D/E351S/E499D/F107Y/F178L/F250I/F483L/G171P/G277A/G306S/G313K/G344N/G441S/H340Y/I100T/I174L/I370V/I421V/I485L/I71T/I87L/INS101VE/K237R/K257S/K359R/K388Q/K457N/K465V/K78R/K92R/L137F/L159P/L310S/L325V/L345I/L360F/L436V/L86V/M122V/N105E/N149E/N241T/N258K/N316V/N355D/N459T/N85D/P266A/P418D/P458S/P84G/Q240E/Q272K/R284A/R293S/S186P/S291T/S305T/S312D/S330A/S352D/S369T/S430A/S439T/S460A/S491A/S492A/S495R/S496G/T141N/T160A/T318E/T379K/T397S/T461V/T488A/T494D/T56K/V126A/V334I/V337I/V95P).
T5 construct: expressed in transfected cells; host or cells: E. coli SASX38 (hemG mutant)
T5 sequence (P55826 other isoform, or with tags, fused parts or gaps with the stated changes): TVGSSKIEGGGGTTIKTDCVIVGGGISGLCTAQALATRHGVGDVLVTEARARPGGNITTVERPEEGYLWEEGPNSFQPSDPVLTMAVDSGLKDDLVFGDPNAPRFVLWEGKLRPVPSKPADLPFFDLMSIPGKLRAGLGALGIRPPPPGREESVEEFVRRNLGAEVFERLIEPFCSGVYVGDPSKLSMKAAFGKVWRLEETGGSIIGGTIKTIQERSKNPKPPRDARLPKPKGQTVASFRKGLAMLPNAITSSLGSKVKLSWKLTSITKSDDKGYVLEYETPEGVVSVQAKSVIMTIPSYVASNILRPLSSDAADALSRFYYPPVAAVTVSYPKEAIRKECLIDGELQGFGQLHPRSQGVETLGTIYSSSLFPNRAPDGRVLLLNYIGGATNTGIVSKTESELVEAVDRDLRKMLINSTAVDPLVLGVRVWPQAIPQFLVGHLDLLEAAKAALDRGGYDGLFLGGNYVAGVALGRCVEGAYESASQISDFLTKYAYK
Nature of the assay: Bacterial cross-tolerance testing of resistant mutant plasmids in SASX38, maize protox-1 mutant. Type of assay: cell-based. Set-up: key: + = 10× or more tolerant than WT; ++ = 100× or more tolerant than WT; − = no cross tolerance. The conditions noted are these: mutant MzC-1Val vs WT plasmid in SASX38. As to the method: as §1

The subject of assay [6] is Arabidopsis line expressing AraC-2Ile+AraC305Leu. Description: Cross tolerance in a seed germination assay, homozygous Arabidopsis line with AraC-2Ile+AraC305Leu. Type of assay: in vivo, Arabidopsis thaliana. The conditions noted are these: AraC-2Ile+AraC305Leu line vs wt. As to the method: Using the procedure described above, an Arabidopsis protox-1 cDNA containing a TAC to ATG (Tyrosine to Methionine) change at nucleotides 1306-1308 in the protox-1 sequence (SEQ ID NO:1) was fused to the native protox-1 promoter fragment and transformed into Arabidopsis thaliana. […] Seed from the vacuum infiltrated plants was collected and plated on a range (10.0 nM-1.0 uM) of a protox inhibitory aryluracil herbicide of formula XVII. Multiple experiments with wild type Arabidopsis have shown that a 10.0 nM concentration of this compound is sufficient to prevent normal seedling germination. Transgenic seeds expressing the AraC-2Met altered enzyme fused to the native protox-1 promoter produced normal Arabidopsis seedlings at herbicide concentrations up to 500 nM, indicating at least 50-fold higher herbicide tolerance when compared to wild-type Arabidopsis. This promoter/altered protox enzyme fusion therefore functions as an effective selectable marker for plant transformation. Several of the plants that germinated on 100.0 nM of protox-inhibiting herbicide were transplanted to soil, grown 2-3 weeks, and tested in a spray assay with various concentrations of the protox-inhibiting herbicide. When compared to empty vector control transformants, the AraPT1Pro/AraC-2Met transgenics were >10-fold more tolerant to the herbicide spray.
Using the procedure described above, an Arabidopsis protox-1 cDNA containing both a TAC to ATC (tyrosine to isoleucine) change at nucleotides 1306-1308 and a TCA to TTA (serine to leucine) change at nucleotides 945-947 in the protox-1 sequence (SEQ ID NO:1) was fused to the native protox-1 promoter fragment and transformed into Arabidopsis thaliana.

T1 sequence (P55826 41-537 T56K/A220L/Y426L): as the sequence (P55826 41-537 T56K/A220L/Y426M) above, with M386L counted along it
T4 sequence (P55826 41-537 T56K/N425S/Y426M): as the sequence (P55826 41-537 T56K/A220L/Y426M) above, with L180A, N385S counted along it

Consider `CCOC(=O)COC(=O)c1cc(Oc2ccc(C(F)(F)F)cc2Cl)ccc1[N+](=O)[O-]` [IV], for which, in assay [1], the “Cross tolerance, AraC-1Leu + AraC-2Leu” value is listed as “++ (++ = 100× or more tolerant than WT)”. The “Cross tolerance, AraC-1Leu + AraC-2Met” value in assay [2] is given as “+ (+ = 10× or more tolerant than WT)”. For the same compound, the “Cross tolerance, AraC-1Val” value in assay [3] was “++ (++ = 100× or more tolerant than WT)”. For the same compound, the “Cross tolerance, AraC-2Met + AraC425Ser” value in assay [4] is recorded as “+ (+ = 10× or more tolerant than WT)”. Further, in assay [5], the “Cross tolerance, MzC-1Val” value is given as “−”. For the same compound, the Tolerance entry in assay [6] is listed as “± (± ≦ 10× more tolerant than wt)”.
Take `COC(=O)CSc1cc(N=c2sc(=O)n3n2CCCC3)c(F)cc1Cl` [VIIa]: the “Cross tolerance, AraC-1Leu + AraC-2Leu” value in assay [1] was “++ (++ = 100× or more tolerant than WT)”. In addition, the “Cross tolerance, AraC-1Leu + AraC-2Met” value in assay [2] is listed as “++ (++ = 100× or more tolerant than WT)”. Besides, in assay [3], the “Cross tolerance, AraC-1Val” value was “+ (+ = 10× or more tolerant than WT)”. For the same compound, the “Cross tolerance, AraC-2Met + AraC425Ser” value in assay [4] is recorded as “++ (++ = 100× or more tolerant than WT)”. Further, the “Cross tolerance, MzC-1Val” value in assay [5] was “+ (+ = 10× or more tolerant than WT)”. Also, in assay [6], the Tolerance entry is listed as “++ (++ ≧ 100× more tolerant than wt)”.
Regarding `CCCCCOC(=O)COc1cc(N2C(=O)C3=C(CCCC3)C2=O)c(F)cc1Cl` [XIV], the “Cross tolerance, AraC-1Leu + AraC-2Leu” value in assay [1] is listed as “++ (++ = 100× or more tolerant than WT)”. In assay [2], the “Cross tolerance, AraC-1Leu + AraC-2Met” value is recorded as “++ (++ = 100× or more tolerant than WT)”. For the same compound, in assay [3], the “Cross tolerance, AraC-1Val” value is given as “+ (+ = 10× or more tolerant than WT)”. Moreover, in assay [4], the “Cross tolerance, AraC-2Met + AraC425Ser” value is reported as “++ (++ = 100× or more tolerant than WT)”. In addition, in assay [5], the “Cross tolerance, MzC-1Val” value was “+ (+ = 10× or more tolerant than WT)”. Moreover, the Tolerance result in assay [6] is “+ (+ ≧ 10× more tolerant than wt)”.
In the case of `CC(C)OC(=O)c1cc(-n2c(=O)cc(C(F)(F)F)n(C)c2=O)ccc1Cl` [XI], the “Cross tolerance, AraC-1Leu + AraC-2Leu” value in assay [1] is reported as “++ (++ = 100× or more tolerant than WT)”. The “Cross tolerance, AraC-1Leu + AraC-2Met” value in assay [2] is “++ (++ = 100× or more tolerant than WT)”. Also, the “Cross tolerance, AraC-1Val” value in assay [3] is given as “−”. In addition, in assay [4], the “Cross tolerance, AraC-2Met + AraC425Ser” value was “++ (++ = 100× or more tolerant than WT)”. For the same compound, the “Cross tolerance, MzC-1Val” value in assay [5] is recorded as “+ (+ = 10× or more tolerant than WT)”. In addition, the Tolerance entry in assay [6] is recorded as “++ (++ ≧ 100× more tolerant than wt)”.
